Read-outs that look alike come from different tables or passages of the source.
Assays:
LASV vRNP = LASV vRNP (UniProt P13699+Q6GWS6); type: cell-based
LCMV vRNP = molecular target: T1, LCMV vRNP (Lymphocytic choriomeningitis virus, UniProt P09992+P14240); type: cell-based
T1 construct: expressed in transfected cells; host or cells: HEK293T

rLCMV/GFP-P2A-NP [1] = test: organism not typed; type: cell-based, LCMV; details: for EC50: Hec50, read-out: EC50, LCMV multiplication (GFP expression)
in vitro [2] = details: African green monkey, CC50 (CellTiter 96 Aqueous One)
rLCMV/GFP-P2A-NP [3] = type: cell-based, LCMV
rLCMV/GFP-P2A-NP [4] = test system: rLCMV/GFP-P2A-NP; design: species or system LCMV
[5] = molecular target: T2, LCMV GPC (GP2-mediated fusion) (Lymphocytic choriomeningitis virus, UniProt P09991); type: cell-based
T2 construct: expressed in transfected cells; host or cells: HEK293T
T2 sequence (P09991 266-498 limits assumed): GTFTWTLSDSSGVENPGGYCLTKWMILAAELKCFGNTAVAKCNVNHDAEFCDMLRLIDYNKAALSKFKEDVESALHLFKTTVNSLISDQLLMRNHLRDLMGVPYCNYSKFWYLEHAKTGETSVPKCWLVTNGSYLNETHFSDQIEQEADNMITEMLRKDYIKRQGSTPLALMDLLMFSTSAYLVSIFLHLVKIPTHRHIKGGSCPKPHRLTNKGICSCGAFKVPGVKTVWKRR
T2 sequence (P09991 59-265 limits assumed): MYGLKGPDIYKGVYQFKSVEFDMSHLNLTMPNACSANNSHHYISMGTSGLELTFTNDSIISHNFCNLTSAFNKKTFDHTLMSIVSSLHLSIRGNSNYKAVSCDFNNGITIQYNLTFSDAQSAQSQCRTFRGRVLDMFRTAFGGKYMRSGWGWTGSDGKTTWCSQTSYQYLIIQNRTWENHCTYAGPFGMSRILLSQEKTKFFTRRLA
T2 sequence (P09991 2-58 limits assumed): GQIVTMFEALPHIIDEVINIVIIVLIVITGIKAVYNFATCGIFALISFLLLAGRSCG

[6] = test system: r3JUNVCandid GFP/GFP (r3Can-GFP); type: cell-based, JUNV
in vitro [7] = details: human
[8] = cited from earlier work
rLCMV/GFP-P2A-NP [9] = test: organism not typed; type: cell-based, LCMV; details: for EC50: A549, read-out: EC50, LCMV multiplication (GFP expression)
mammarenavirus = details: cited from earlier work

Chain of LASV vRNP (P13699 whole entry, looked up): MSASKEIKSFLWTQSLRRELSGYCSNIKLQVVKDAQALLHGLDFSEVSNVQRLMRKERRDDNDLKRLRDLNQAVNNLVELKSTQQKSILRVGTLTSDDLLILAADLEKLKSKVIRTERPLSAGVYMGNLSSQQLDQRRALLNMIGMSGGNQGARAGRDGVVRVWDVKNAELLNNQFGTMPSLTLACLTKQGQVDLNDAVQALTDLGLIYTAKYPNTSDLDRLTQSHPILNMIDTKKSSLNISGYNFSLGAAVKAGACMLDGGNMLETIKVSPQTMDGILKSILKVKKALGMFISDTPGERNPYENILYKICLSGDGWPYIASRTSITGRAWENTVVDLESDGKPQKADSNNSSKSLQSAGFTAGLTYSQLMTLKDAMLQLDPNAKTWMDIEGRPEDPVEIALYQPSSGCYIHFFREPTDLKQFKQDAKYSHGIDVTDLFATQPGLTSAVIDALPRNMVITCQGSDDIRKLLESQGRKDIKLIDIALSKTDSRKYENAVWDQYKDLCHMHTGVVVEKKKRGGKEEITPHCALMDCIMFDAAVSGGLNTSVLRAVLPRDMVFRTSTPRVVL
Chain of LASV vRNP (Q6GWS6 whole entry, looked up): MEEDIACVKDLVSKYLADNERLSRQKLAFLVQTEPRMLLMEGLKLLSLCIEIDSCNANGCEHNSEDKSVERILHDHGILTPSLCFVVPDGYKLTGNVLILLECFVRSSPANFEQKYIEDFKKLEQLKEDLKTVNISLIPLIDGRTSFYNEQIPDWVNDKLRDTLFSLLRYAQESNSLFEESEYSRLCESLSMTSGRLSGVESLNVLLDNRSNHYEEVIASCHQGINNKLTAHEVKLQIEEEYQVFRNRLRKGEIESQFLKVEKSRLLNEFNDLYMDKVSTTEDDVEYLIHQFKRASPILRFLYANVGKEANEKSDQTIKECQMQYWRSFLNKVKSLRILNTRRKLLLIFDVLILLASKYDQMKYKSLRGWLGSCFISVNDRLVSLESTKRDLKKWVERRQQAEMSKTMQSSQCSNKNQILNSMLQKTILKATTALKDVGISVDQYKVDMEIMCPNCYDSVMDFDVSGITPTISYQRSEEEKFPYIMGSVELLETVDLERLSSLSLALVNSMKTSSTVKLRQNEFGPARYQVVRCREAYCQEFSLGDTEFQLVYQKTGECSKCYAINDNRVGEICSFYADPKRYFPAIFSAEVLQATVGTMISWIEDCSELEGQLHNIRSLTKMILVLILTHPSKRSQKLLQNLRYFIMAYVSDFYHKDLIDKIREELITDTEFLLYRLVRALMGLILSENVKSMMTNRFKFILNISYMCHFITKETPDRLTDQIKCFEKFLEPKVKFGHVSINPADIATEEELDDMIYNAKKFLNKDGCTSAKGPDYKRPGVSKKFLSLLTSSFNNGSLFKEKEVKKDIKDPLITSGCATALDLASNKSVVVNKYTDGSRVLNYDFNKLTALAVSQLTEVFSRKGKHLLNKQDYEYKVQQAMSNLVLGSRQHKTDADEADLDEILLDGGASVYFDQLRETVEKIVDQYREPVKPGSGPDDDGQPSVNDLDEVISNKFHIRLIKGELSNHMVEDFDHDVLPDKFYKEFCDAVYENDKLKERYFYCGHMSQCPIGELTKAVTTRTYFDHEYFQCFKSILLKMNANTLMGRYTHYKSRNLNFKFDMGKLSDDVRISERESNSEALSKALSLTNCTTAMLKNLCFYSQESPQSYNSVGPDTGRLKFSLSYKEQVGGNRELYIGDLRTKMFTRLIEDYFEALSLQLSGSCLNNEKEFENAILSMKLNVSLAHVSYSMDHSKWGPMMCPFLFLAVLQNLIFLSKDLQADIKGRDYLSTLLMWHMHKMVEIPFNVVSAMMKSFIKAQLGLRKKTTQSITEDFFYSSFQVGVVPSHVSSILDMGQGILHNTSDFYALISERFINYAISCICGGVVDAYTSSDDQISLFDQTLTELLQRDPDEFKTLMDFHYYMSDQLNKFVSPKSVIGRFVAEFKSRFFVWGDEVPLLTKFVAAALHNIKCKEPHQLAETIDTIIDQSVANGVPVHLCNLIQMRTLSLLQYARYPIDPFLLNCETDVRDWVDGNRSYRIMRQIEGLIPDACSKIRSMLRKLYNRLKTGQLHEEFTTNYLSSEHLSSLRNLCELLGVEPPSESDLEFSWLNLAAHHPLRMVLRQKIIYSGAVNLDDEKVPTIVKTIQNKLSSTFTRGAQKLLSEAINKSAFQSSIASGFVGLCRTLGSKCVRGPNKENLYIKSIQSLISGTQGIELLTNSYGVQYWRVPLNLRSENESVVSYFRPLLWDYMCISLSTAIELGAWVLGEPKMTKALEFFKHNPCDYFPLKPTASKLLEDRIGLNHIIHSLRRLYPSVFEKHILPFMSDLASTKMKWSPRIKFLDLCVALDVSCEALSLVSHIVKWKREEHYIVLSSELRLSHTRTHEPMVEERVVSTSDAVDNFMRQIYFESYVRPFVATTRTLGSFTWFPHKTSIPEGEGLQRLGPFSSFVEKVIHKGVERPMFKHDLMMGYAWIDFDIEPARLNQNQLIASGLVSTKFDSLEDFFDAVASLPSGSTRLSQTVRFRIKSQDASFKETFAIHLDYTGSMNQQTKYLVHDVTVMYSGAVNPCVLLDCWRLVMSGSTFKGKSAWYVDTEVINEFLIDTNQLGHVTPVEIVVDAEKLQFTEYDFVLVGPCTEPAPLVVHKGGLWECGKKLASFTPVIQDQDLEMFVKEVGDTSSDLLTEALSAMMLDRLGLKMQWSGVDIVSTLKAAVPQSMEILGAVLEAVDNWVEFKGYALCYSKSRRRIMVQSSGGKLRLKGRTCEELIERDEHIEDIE

SMILES: C[C@@H]1C[C@H]2[C@@H]3CCC4=CC(=O)C=C[C@]4(C)[C@@]3(F)[C@@H](O)C[C@]2(C)[C@@]1(O)C(=O)CO [DEX, dexamethasone]
- Reduction in LASV MG-directed ZsGreen expression levels vs vehicle control (LASV vRNP): ~ 28%
- Inhibition of LCMV MG activity (in words) (LCMV vRNP): minimal inhibitory activities
- Inhibitory activity on LCMV multiplication (in words) (rLCMV/GFP-P2A-NP [1]): very poor inhibitory activity
- Toxicity on Vero cells (in words) (Vero cells): minimal toxicity
- CC50 (in vitro [2]): 55.7 µM

SMILES: Fc1ccc(C(c2ccc(F)cc2)N2CCN(C/C=C/c3ccccc3)CC2)cc1 [FLN, Flunarizine]
- Reduction in LASV MG-directed ZsGreen expression levels vs vehicle control (LASV vRNP): ~ 50%
- Inhibition of LCMV MG activity (in words) (LCMV vRNP): strongest inhibitory effect
- Inhibition of LCMV MG vRNP-directed reporter gene (GFP) expression (LCMV vRNP): ~ 75%
- Levels of viral (LCMV NP) RNA determined by RT-qPCR (rLCMV/GFP-P2A-NP [3]): reduced
- Virus cell propagation (GFP imaging) (rLCMV/GFP-P2A-NP [3]): reduced virus cell propagation
- Virucidal activity: effect on virion infectivity (rLCMV/GFP-P2A-NP [4]): did not significantly affect virion infectivity
- GP2-mediated pH-dependent fusion (syncytium formation) [5]: inhibition of GP2-mediated fusion
- Reduction in r3Can-GFP (JUNV) virus peak titers vs VC [6]: > 1 log
- CC50 (in vitro [2]): > 100 µM
- CC50 (in vitro [7]): 74.3 µM
- Bound to plasma proteins [8]: More than 99%

SMILES: NCC1(CC(=O)O)CCCCC1 [Gabapentin, gabapentin]
- Anti-LCMV activity of calcium channel blockers (in words) (rLCMV/GFP-P2A-NP [9]): did not exhibit significant anti-LCMV activity
- EC50, LCMV multiplication (GFP expression) (rLCMV/GFP-P2A-NP [9]): >Flat
- CC50 (in vitro [7]): > 100 µM

SMILES: OC(c1cc(C(F)(F)F)nc2c(C(F)(F)F)cccc12)C1CCCCN1 (stereo not drawn) [MEF, mefloquine]
- Reduction in LASV MG-directed ZsGreen expression levels vs vehicle control (LASV vRNP): 5%
- Inhibition of LCMV MG activity (in words) (LCMV vRNP): minimal inhibitory activities
- selective index (SI) (rLCMV/GFP-P2A-NP [1]): 1.87
- EC50 (rLCMV/GFP-P2A-NP [1]): 15.5 µM
- CC50 (Vero cells; African green monkey): 27.3 µM
- CC50 (in vitro [2]): 29.1 µM

SMILES: [Cl][Ni][Cl] [Nickel Chloride, nickel chloride]
- Anti-LCMV activity of calcium channel blockers (in words) (rLCMV/GFP-P2A-NP [9]): did not exhibit significant anti-LCMV activity
- CC50 (A549 cells): > 100 µM

SMILES: COC(=O)C1=C(C)NC(C)=C(C(=O)OC)C1c1ccccc1[N+](=O)[O-] [Nifidipine, nifedipine]
- Anti-LCMV activity of calcium channel blockers (in words) (rLCMV/GFP-P2A-NP [9]): did not exhibit significant anti-LCMV activity
- EC50 (rLCMV/GFP-P2A-NP [9]): > 100 µM

SMILES: CN1CC(=O)N2[C@H](c3ccc4c(c3)OCO4)c3[nH]c4ccccc4c3C[C@@H]2C1=O [TAD, tadalafil]
- Reduction in LASV MG-directed ZsGreen expression levels vs vehicle control (LASV vRNP): ~ 12%
- Inhibition of LCMV MG activity (in words) (LCMV vRNP): minimal inhibitory activities
- Inhibitory activity on LCMV multiplication (in words) (rLCMV/GFP-P2A-NP [1]): very poor inhibitory activity
- EC50 (rLCMV/GFP-P2A-NP [1]): > 100 µM
- Toxicity on Vero cells (in words) (Vero cells): minimal toxicity
- CC50 (in vitro [2]): > 100 µM

SMILES: COc1ccc(CCN(C)CCCC(C#N)(c2ccc(OC)c(OC)c2)C(C)C)cc1OC (stereo not drawn) [Verapamil, verapamil]
- Anti-LCMV activity of calcium channel blockers (in words) (rLCMV/GFP-P2A-NP [9]): did not exhibit significant anti-LCMV activity
- EC50 (rLCMV/GFP-P2A-NP [9]): > 100 µM
- CC50 (in vitro [7]): > 100 µM

SMILES: C=C1CC[C@H](O)C/C1=C/C=C1\CCC[C@]2(C)[C@@H]([C@H](C)/C=C/[C@H](C)C(C)C)CC[C@@H]12 [Vit D, ergocalciferol]
- Reduction in LASV MG-directed ZsGreen expression levels vs vehicle control (LASV vRNP): ~ 18%
- Inhibition of LCMV MG activity (in words) (LCMV vRNP): minimal inhibitory activities
- Inhibitory activity on LCMV multiplication (in words) (rLCMV/GFP-P2A-NP [1]): very poor inhibitory activity
- EC50 (rLCMV/GFP-P2A-NP [1]): > 100 µM
- Toxicity on Vero cells (in words) (Vero cells): minimal toxicity
- CC50 (in vitro [2]): > 100 µM

SMILES: Clc1ccc(Cn2c(CN3CCCC3)nc3ccccc32)cc1 [clemizole]
- Anti-mammarenavirus activity (in words) (mammarenavirus): does not exhibit anti-mammarenavirus activity

— paper PMC11768584 (Viruses, 2025)
